Measured values reported in PubChem BioAssay (NCI).
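Results reflect a 48-hour exposure of cells in 96-well plates to compound at five concentrations. The concentration for 50% growth inhibition is given as GI50. TGI denotes the concentration required for complete inhibition of growth.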

What was measured:
Experiment in all cases: NCI tumour cell line growth inhibition, 48 h
COLO 205 colon = tested on: COLO 205 colon
SK-OV-3 ovarian = tested on: SK-OV-3 ovarian
U251 CNS = tested on: U251 CNS
A549 NSCLC = tested on: A549 NSCLC
SK-MEL-5 melanoma = tested on: SK-MEL-5 melanoma
MDA-MB-435 = tested on: MDA-MB-435
LOX IMVI melanoma = tested on: LOX IMVI melanoma
SNB-19 CNS = tested on: SNB-19 CNS
SK-MEL-28 melanoma = tested on: SK-MEL-28 melanoma
NCI-H460 lung = tested on: NCI-H460 lung
SNB-75 CNS = tested on: SNB-75 CNS
SF-539 CNS = tested on: SF-539 CNS
OVCAR-5 ovarian = tested on: OVCAR-5 ovarian
HOP-62 NSCLC = tested on: HOP-62 NSCLC
SW-620 colon = tested on: SW-620 colon
SF-295 CNS = tested on: SF-295 CNS
HL-60(TB) leukemia = tested on: HL-60(TB) leukemia
M14 melanoma = tested on: M14 melanoma
OVCAR-3 ovarian = tested on: OVCAR-3 ovarian
ACHN renal = tested on: ACHN renal
OVCAR-4 ovarian = tested on: OVCAR-4 ovarian
HCC-2998 colon = tested on: HCC-2998 colon
HCT-116 colon = tested on: HCT-116 colon
MDA-MB-231 breast = tested on: MDA-MB-231 breast
MALME-3M melanoma = tested on: MALME-3M melanoma
MCF7 breast = tested on: MCF7 breast
SF-268 CNS = tested on: SF-268 CNS
UO-31 renal = tested on: UO-31 renal
TK-10 renal = tested on: TK-10 renal

COc1ccc(/C=C2\CS(=O)(=O)C/C(=C\c3ccc(OC)cc3)C2=O)cc1
TGI (COLO 205 colon): 2.94 µM | GI50 (SK-OV-3 ovarian): 3.3 µM | TGI (SK-OV-3 ovarian): 26.2 µM | GI50 (U251 CNS): 0.497 µM | TGI (U251 CNS): 1.85 µM | GI50 (A549 NSCLC): 2 µM | TGI (A549 NSCLC): 5.29 µM | GI50 (SK-MEL-5 melanoma): 1.57 µM | TGI (SK-MEL-5 melanoma): 2.92 µM | GI50 (MDA-MB-435): 1.4 µM | TGI (MDA-MB-435): 5.29 µM | GI50 (LOX IMVI melanoma): 0.646 µM | TGI (LOX IMVI melanoma): 1.91 µM | GI50 (SNB-19 CNS): 4.21 µM | TGI (SNB-19 CNS): 18.1 µM | GI50 (SK-MEL-28 melanoma): 1.7 µM | TGI (SK-MEL-28 melanoma): 3.17 µM | GI50 (NCI-H460 lung): 1.9 µM | TGI (NCI-H460 lung): 4.49 µM | GI50 (SNB-75 CNS): 8.18 µM | TGI (SNB-75 CNS): > 47.4 µM | GI50 (SF-539 CNS): 2.01 µM | TGI (SF-539 CNS): 4.28 µM | GI50 (OVCAR-5 ovarian): 3.16 µM | TGI (OVCAR-5 ovarian): 10.3 µM | GI50 (HOP-62 NSCLC): 2.01 µM | TGI (HOP-62 NSCLC): 4.36 µM | GI50 (SW-620 colon): 1.32 µM | TGI (SW-620 colon): 3.37 µM | GI50 (SF-295 CNS): 2.42 µM | TGI (SF-295 CNS): 6.59 µM | GI50 (HL-60(TB) leukemia): 1.96 µM | TGI (HL-60(TB) leukemia): 5.73 µM | GI50 (M14 melanoma): 1.61 µM | TGI (M14 melanoma): 3.09 µM | GI50 (OVCAR-3 ovarian): 1.79 µM | TGI (OVCAR-3 ovarian): 4.11 µM | GI50 (ACHN renal): 1.79 µM | TGI (ACHN renal): 3.35 µM | GI50 (OVCAR-4 ovarian): 3.19 µM | TGI (OVCAR-4 ovarian): > 30.8 µM | GI50 (HCC-2998 colon): 1.71 µM | TGI (HCC-2998 colon): 3.09 µM | GI50 (HCT-116 colon): 0.472 µM | TGI (HCT-116 colon): 1.43 µM | GI50 (MDA-MB-231 breast): 3.01 µM | TGI (MDA-MB-231 breast): 9.65 µM | GI50 (MALME-3M melanoma): 2.41 µM | TGI (MALME-3M melanoma): 7.84 µM | GI50 (MCF7 breast): 0.51 µM | TGI (MCF7 breast): 7.83 µM | GI50 (SF-268 CNS): 1.7 µM | TGI (SF-268 CNS): 5.34 µM | GI50 (UO-31 renal): 1.45 µM | TGI (UO-31 renal): 3.02 µM | GI50 (TK-10 renal): 2.67 µM | TGI (TK-10 renal): 6.91 µM
